Counter-ions that a name gives are not always drawn.
These molecules were tested against T1, PknB (Mycobacterium tuberculosis, UniProt P9WI81) (assay: biochemical). Conditions: not given.
T1 construct: made in house
T1 sequence (P9WI81 whole entry): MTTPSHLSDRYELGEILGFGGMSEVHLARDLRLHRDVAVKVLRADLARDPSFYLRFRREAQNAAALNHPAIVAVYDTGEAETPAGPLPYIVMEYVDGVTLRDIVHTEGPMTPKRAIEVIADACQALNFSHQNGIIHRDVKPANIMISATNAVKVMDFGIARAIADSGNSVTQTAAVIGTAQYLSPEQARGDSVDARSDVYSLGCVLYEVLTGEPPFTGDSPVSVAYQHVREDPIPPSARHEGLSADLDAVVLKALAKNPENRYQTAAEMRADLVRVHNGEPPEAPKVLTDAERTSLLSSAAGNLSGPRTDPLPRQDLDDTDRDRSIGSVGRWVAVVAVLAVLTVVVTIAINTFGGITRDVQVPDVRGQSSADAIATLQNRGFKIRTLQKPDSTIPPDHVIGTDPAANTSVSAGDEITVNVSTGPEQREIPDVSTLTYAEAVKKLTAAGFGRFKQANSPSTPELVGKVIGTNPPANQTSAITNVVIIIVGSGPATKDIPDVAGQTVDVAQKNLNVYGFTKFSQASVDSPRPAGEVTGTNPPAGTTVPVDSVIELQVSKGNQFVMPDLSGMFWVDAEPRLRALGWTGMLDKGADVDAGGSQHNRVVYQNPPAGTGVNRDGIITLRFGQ
Design: species or system M. tuberculosis
In the case of C#Cc1cnc(-c2ccc(C(=O)OC)s2)nc1Nc1cc(C2CC2)[nH]n1 [Compound 151, Methyl 5-(4-(5-cyclopropyl-1H-pyrazol-3-ylamino)-5-ethynylpyrimidin-2-yl)thiophene-2-carboxylate hydrochloride], the “Ki Values” is reported as “A**, A*”. In the case of COC(=O)c1ccc(-c2ncc(Cl)c(Nc3cc(C4CC4)n[nH]3)n2)s1 [Compound 154, Methyl5-(5-chloro-4-(3-cyclopropyl-1H-pyrazol-5-ylamino)pyrimidin-2-yl)thiophene-2-carboxylate hydrochloride], the Ki is reported as 10 to 50 nM.

Same assay, conditions: 3 nM PknB, 6 uM GarA, 3 μM ATP, 30 min; competitive tight-binding fit; several symbols in a cell = repeat determinations
For C[C@H](O)c1ccc(-c2ncc(Cl)c(Nc3cc(C4CC4)[nH]n3)n2)s1 [Compound 132, (S)-1-(5-(4-(5-cyclopropyl-1H-pyrazol-3-ylamino)-5-chloropyrimidin-2-yl)thiophen-2-yl)ethanol], the “Ki Values” was “A**, A*”. O=C(O)c1cccc(-c2ncc(Cl)c(Nc3cc(C4CC4)[nH]n3)n2)c1 [Compound 142, 3-[5-chloro-4-[(5-cyclopropyl-1H-pyrazol-3-yl)amino]-pyrimidin-2-yl]benzoic acid] was tested, and the “Ki Values” was “A*, A, B**, B**”. In the case of CC(=O)c1ccc(-c2ncc(Br)c(Nc3cc(C4CC4)[nH]n3)n2)s1 [Compound 165, 1-[5-[5-bromo-4-[(5-cyclopropyl-1H-pyrazol-3-yl)amino]-pyrimidin-2-yl]-2-thienyl]ethanone], the “Ki Values” is reported as “A**, A*”. For C#Cc1cnc(-c2ccc(CNC(=O)OC(C)(C)C)s2)nc1Nc1cc(C2CC2)[nH]n1 [Compound 168, Tert-butyl (5-(4-(5-cyclopropyl-1H-pyrazol-3-ylamino)-5-ethynylpyrimidin-2-yl)thiophen-2-yl)methylcarbamate], the “Ki Values” was “B**, B**, B”. For C#Cc1cnc(N2CC[C@H](NC(=O)OC(C)(C)C)C2)nc1Nc1cc(C2CC2)n[nH]1 [Compound 169, tert-butyl [[1-[4-[(5-cyclopropyl-2H-pyrazol-3-yl)amino]-5-ethynyl-pyrimidin-2-yl]pyrrolidin-3-yl]amino]formate], the “Ki Values” was “C, D”. For C#Cc1cnc(N2CCCCC2)nc1Nc1cc(C2CC2)n[nH]1 [Compound 172, N-(5-Cyclopropyl-1H-pyrazol-3-yl)-5-ethynyl-2-(piperidin-1-yl)pyrimidin-4-amine], the “Ki Values” was “A, B**, B**”.

Same assay, conditions: 3 nM PknB, 6 uM GarA, 3 μM ATP, 30 min; competitive tight-binding fit; several symbols in a cell = repeat determinations; read-out: Ki Values
In the case of CNS(=O)(=O)c1cccc(-c2ncc(Cl)c(Nc3cc(C4CC4)[nH]n3)n2)c1 [Compound 127, 3-[5-chloro-4-[(5-cyclopropyl-1H-pyrazol-3-yl)amino]-pyrimidin-2-yl]-N-methyl-benzenesulfonamide], the Ki is reported as 10 to 50 nM. C#Cc1cnc(-c2ccc(CC#N)s2)nc1Nc1cc(C2CC2)n[nH]1 [Compound 130, 2-(5-(4-(3-Cyclopropyl-1H-pyrazol-5-ylamino)-5-ethynylpyrimidin-2-yl)thiophen-2-yl)acetonitrile] showed a Ki of 1 to 10 nM. Work on CN(CCO)S(=O)(=O)c1cccc(-c2ncc(Cl)c(Nc3cc(C4CC4)[nH]n3)n2)c1 [Compound 134, 3-[5-chloro-4-[(5-cyclopropyl-1H-pyrazol-3-yl)amino]-pyrimidin-2-yl]-N-(2-hydroxyethyl)-N-methyl-benzenesulfonamide] yielded a Ki of 10 to 50 nM. Molecule O=S(=O)(c1ccc(-c2ncc(Cl)c(Nc3cc(C4CC4)[nH]n3)n2)s1)N1CCNCC1 [Compound 135, 5-chloro-N-(5-cyclopropyl-1H-pyrazol-3-yl)-2-(5-piperazin-1-ylsulfonyl-2-thienyl)-pyrimidin-4-amine] has a Ki of 10 to 50 nM. For CC(=O)c1ccc(-c2ncc(F)c(Nc3cc(C4CC4)[nH]n3)n2)s1 [Compound 137, 1-(5-(4-(5-cyclopropyl-1H-pyrazol-3-ylamino)-5-fluoropyrimidin-2-yl)thiophen-2-yl)ethanone], the Ki was 10 to 50 nM. In the case of N#Cc1ccc(-c2ncc(Cl)c(Nc3cc(C4CC4)[nH]n3)n2)s1 [Compound 140, 5-(5-chloro-4-(5-cyclopropyl-1H-pyrazol-3-ylamino)pyrimidin-2-yl)thiophene-2-carbonitrile], the Ki is reported as 10 to 50 nM. Work on N#CCc1ccc(-c2ncc(Cl)c(Nc3cc(C4CC4)n[nH]3)n2)s1 [Compound 143, 2-(5-(5-chloro-4-(3-cyclopropyl-1H-pyrazol-5-ylamino)pyrimidin-2-yl)thiophen-2-yl)acetonitrile] yielded a Ki of 1 to 10 nM. For Cc1cnc(-c2ccc(S(N)(=O)=O)s2)nc1Nc1cc(C2CC2)n(C)n1 [Compound 150, 5-[4-[(5-cyclopropyl-1-methyl-pyrazol-3-yl)amino]-5-methyl-pyrimidin-2-yl]thiophene-2-sulfonamide], the Ki was greater than 4000 nM. For O=S(=O)(NC1CCOC1)c1ccc(-c2ncc(Cl)c(Nc3cc(C4CC4)[nH]n3)n2)s1 (stereo not shown) [Compound 152, 5-[5-chloro-4-[(5-cyclopropyl-1H-pyrazol-3-yl)amino]-pyrimidin-2-yl]-N-tetrahydrofuran-3-yl-thiophene-2-sulfonamide], the Ki was 10 to 50 nM. With C#Cc1cnc(-c2ccc(S(C)(=O)=O)cc2)nc1Nc1cc(C2CC2)[nH]n1 [Compound 153, N-(5-Cyclopropyl-1H-pyrazol-3-yl)-5-ethynyl-2-(4-(methylsulfonyl)phenyl)pyrimidin-4-amine] the Ki was 10 to 50 nM. NS(=O)(=O)c1ccccc1-c1ncc(Cl)c(Nc2cc(C3CC3)[nH]n2)n1 [Compound 155, 2-[5-chloro-4-[(5-cyclopropyl-1H-pyrazol-3-yl)amino]-pyrimidin-2-yl]benzenesulfonamide] gave a Ki greater than 4000 nM. Molecule O=C(O)c1ccc(-c2ncc(Cl)c(Nc3cc(C4CC4)n[nH]3)n2)s1 [Compound 156, 5-(5-chloro-4-(3-cyclopropyl-1H-pyrazol-5-ylamino)pyrimidin-2-yl)thiophene-2-carboxylic acid] has a Ki of 50 to 100 nM. C#Cc1cnc(-c2ccc(C#N)s2)nc1Nc1cc(C2CC2)[nH]n1 [Compound 157, 5-(4-(5-Cyclopropyl-1H-pyrazol-3-ylamino)-5-ethynylpyrimidin-2-yl)thiophene-2-carbonitrile] gave a Ki of 1 to 10 nM. In the case of O=S(=O)(NCC(F)(F)F)c1ccc(-c2ncc(Cl)c(Nc3cc(C4CC4)[nH]n3)n2)s1 [Compound 158, 5-[5-chloro-4-[(5-cyclopropyl-1H-pyrazol-3-yl)amino]-pyrimidin-2-yl]-N-(2,2,2-trifluoroethyl)thiophene-2-sulfonamide], the Ki is reported as 10 to 50 nM. With COc1ccc(-c2ncc(Cl)c(Nc3cc(C4CC4)[nH]n3)n2)cc1S(N)(=O)=O [Compound 161, 5-[5-chloro-4-[(5-cyclopropyl-1H-pyrazol-3-yl)amino]-pyrimidin-2-yl]-2-methoxy-benzenesulfonamide] the Ki was 50 to 100 nM. CC(C)(C)NS(=O)(=O)c1ccc(-c2ncc(C(F)(F)F)c(Nc3cc(C4CC4)n[nH]3)n2)s1 [Compound 162, 5-[4-[(5-cyclopropyl-2H-pyrazol-3-yl)amino]-5-(trifluoromethyl)pyrimidin-2-yl]-N-tert-butyl-thiophene-2-sulfonamide] was tested, and the Ki was 500 to 1000 nM. In the case of CC(C)(C)NS(=O)(=O)c1ccc(-c2ncc(CO)c(Nc3cc(C4CC4)[nH]n3)n2)s1 [Compound 163, N-tert-butyl-5-(4-(5-cyclopropyl-1H-pyrazol-3-ylamino)-5-(hydroxymethyl)pyrimidin-2-yl)thiophene-2-sulfonamide], the Ki is reported as 100 to 500 nM. For Clc1cnc(-c2ccco2)nc1Nc1cc(C2CC2)[nH]n1 [Compound 164, 5-chloro-N-(5-cyclopropyl-1H-pyrazol-3-yl)-2-(furan-2-yl)pyrimidin-4-amine], the Ki was 100 to 500 nM. CC(=O)NCCNS(=O)(=O)c1ccc(-c2ncc(Br)c(Nc3cc(C4CC4)[nH]n3)n2)s1 [Compound 166, N-(2-(5-(5-bromo-4-(5-cyclopropyl-1H-pyrazol-3-ylamino)pyrimidin-2-yl)thiophene-2-sulfonamido)ethyl)acetamide] gave a Ki of 10 to 50 nM. C#Cc1cnc(N2CCCNCC2)nc1Nc1cc(C2CC2)n[nH]1 [Compound 174, N-(5-cyclopropyl-2H-pyrazol-3-yl)-2-(1,4-diazepan-1-yl)-5-ethynyl-pyrimidin-4-amine] gave a Ki of 2000 to 4000 nM. C#Cc1cnc(N2CCNCC2)nc1Nc1cc(C2CC2)n[nH]1 [Compound 175] gave a Ki of 2000 to 4000 nM. N#Cc1ccc(-c2ncc(Br)c(Nc3cc(C4CC4)[nH]n3)n2)s1 [Compound 176, 5-[5-bromo-4-[(5-cyclopropyl-1H-pyrazol-3-yl)amino]-pyrimidin-2-yl]thiophene-2-carbonitrile] gave a Ki of 1 to 10 nM. With C#Cc1cnc(N2CCN(C)CC2)nc1Nc1cc(C2CC2)[nH]n1 [Compound 177, N-(5-cyclopropyl-1H-pyrazol-3-yl)-5-ethynyl-2-(4-methylpiperazin-1-yl)-pyrimidin-4-amine] the Ki was 2000 to 4000 nM. C#Cc1cnc(N2CCCC2)nc1Nc1cc(C2CC2)[nH]n1 [Compound 178, N-(5-cyclopropyl-1H-pyrazol-3-yl)-5-ethynyl-2-pyrrolidin-1-yl-pyrimidin-4-amine] was tested, and the Ki was 100 to 500 nM. Molecule NS(=O)(=O)c1ccc(-c2ncc(C(=O)O)c(Nc3cc(C4CC4)[nH]n3)n2)s1 [Compound 179, 4-(5-cyclopropyl-1H-pyrazol-3-ylamino)-2-(5-sulfamoylthiophen-2-yl)pyrimidine-5-carboxylic acid] has a Ki of 500 to 1000 nM. Molecule C#Cc1cnc(-c2ccc(S(=O)(=O)NCCNC(C)=O)s2)nc1Nc1cc(C2CC2)[nH]n1 [Compound 181, N-[2-[[5-[4-[(5-cyclopropyl-1H-pyrazol-3-yl)amino]-5-ethynyl-pyrimidin-2-yl]-2-thienyl]sulfonylamino]ethyl]acetamide] has a Ki of 10 to 50 nM. For Clc1cnc(-c2ccccn2)nc1Nc1cc(C2CC2)[nH]n1 [Compound 182, 5-chloro-N-(5-cyclopropyl-1H-pyrazol-3-yl)-2-(pyridin-2-yl)pyrimidin-4-amine], the Ki was 1000 to 2000 nM. C#Cc1cnc(-c2ccc(S(=O)(=O)NCCNC(=O)C(C)(C)C)s2)nc1Nc1cc(C2CC2)n[nH]1 [Compound 183, N-(2-(5-(4-(5-cyclopropyl-1H-pyrazol-3-ylamino)-5-ethynylpyrimidin-2-yl)thiophene-2-sulfonamido)ethyl)pivalamide] was tested, and the Ki was 50 to 100 nM. C#Cc1cnc(N2CC[C@@H](N)C2)nc1Nc1cc(C2CC2)n[nH]1 [Compound 184, 2-(3-aminopyrrolidin-1-yl)-N-(5-cyclopropyl-2H-pyrazol-3-yl)-5-ethynyl-pyrimidin-4-amine] gave a Ki greater than 4000 nM.
